{
  "source": "patent US5387670A",
  "about": "“Antibiotic, deoxymulundocandin, a process for its production and its use as medicament” (Hoechst Aktiengesellschaft, priority 1990, dated 1995)",
  "key": {"[1]": {"tested_on": "Aspergillus niger", "assay": "Minimum inhibitory concentration", "type": "cell-based"}, "[2]": {"tested_on": "Trichophyton mentagrophytes", "assay": "Minimum inhibitory concentration", "type": "cell-based"}, "[3]": {"tested_on": "Botrytis cinerea 47", "assay": "Minimum inhibitory concentration", "type": "cell-based"}, "[4]": {"tested_on": "Microsporum canis", "assay": "Minimum inhibitory concentration", "type": "cell-based"}, "[5]": {"tested_on": "Cercospora beticola 71", "assay": "Minimum inhibitory concentration", "type": "cell-based"}, "[6]": {"tested_on": "Candida albicans", "assay": "Minimum inhibitory concentration", "type": "cell-based"}, "[7]": {"tested_on": "Botrytis cinerea 212", "assay": "Minimum inhibitory concentration", "type": "cell-based"}, "[8]": {"tested_on": "Penicillium italicum", "assay": "Minimum inhibitory concentration", "type": "cell-based"}, "[9]": {"assay": "Solubility (physicochemical properties)", "from_the_text": "Physicochemical Properties of the New Antibiotic Deoxymulundocandin"}, "[10]": {"tested_on": "Botrytis cinerea 211", "assay": "Minimum inhibitory concentration", "type": "cell-based"}, "[11]": {"tested_on": "Cladosporium species", "assay": "Minimum inhibitory concentration", "type": "cell-based"}, "[12]": {"tested_on": "Saccharomycis cerevisiae", "assay": "Minimum inhibitory concentration", "type": "cell-based"}, "[13]": {"tested_on": "Botrytis cinerea 57", "assay": "Minimum inhibitory concentration", "type": "cell-based"}, "[14]": {"tested_on": "Microsporum gypseum", "assay": "Minimum inhibitory concentration", "type": "cell-based"}},
  "note": "Numbered stars: 1 amine (or outer) side, 2 acyl side, 3 side chain; on linkers, the order of the positions; unused ones are H or OH. Bridge positions count the residues as written; N and C are the ends. Square brackets hold non-standard residues; d marks the D form. Peptide text beside a SMILES is read from it. * marks the point of attachment. Orn(4R-OH,5R-OH) = O=C([C@H](C[C@@H](O)[C@@H](O)N[*:3])N[*:1])[*:2]; Pro(3S-OH,4S-Me) = C[C@H]1CN[C@H](C(=O)O)[C@H]1O; hTyr(3R-OH) = N[C@H](C(=O)O)[C@H](O)Cc1ccc(O)cc1; Hyp = O=C(O)[C@@H]1C[C@@H](O)CN1; X1 = CCC(C)CCCCCCCCCCC(=O)*",
  "data": [
    {"molecule": "CCC(C)CCCCCCCCCCC(=O)N[C@H]1C[C@@H](O)[C@@H](O)NC(=O)[C@@H]2[C@@H](O)[C@@H](C)CN2C(=O)[C@H](CO)NC(=O)[C@H]([C@H](O)Cc2ccc(O)cc2)NC(=O)[C@@H]2C[C@@H](O)CN2C(=O)[C@H]([C@@H](C)O)NC1=O", "note": "(stereo partly drawn) [Deoxymulundocandin] (X1-[Orn(4R-OH,5R-OH)]T[Hyp][hTyr(3R-OH)]S[Pro(3S-OH,4S-Me)]; lactam 1-C)", "values": [
      {"measurement": "Minimum Inhibitory Concentration", "setting": "[1]", "result": 3.1, "unit": "micrograms per milliliter"},
      {"measurement": "Minimum Inhibitory Concentration", "setting": "[2]", "result": "< 0.18", "unit": "micrograms per milliliter"},
      {"measurement": "Minimum Inhibitory Concentration", "setting": "[3]", "result": 6.25, "unit": "micrograms per milliliter"},
      {"measurement": "Minimum Inhibitory Concentration", "setting": "[4]", "result": "< 0.18", "unit": "micrograms per milliliter"},
      {"measurement": "Minimum Inhibitory Concentration", "setting": "[5]", "result": 6.25, "unit": "micrograms per milliliter"},
      {"measurement": "Minimum Inhibitory Concentration", "setting": "[6]", "result": 1.5, "unit": "micrograms per milliliter"},
      {"measurement": "Minimum Inhibitory Concentration", "setting": "[7]", "result": 25, "unit": "micrograms per milliliter"},
      {"measurement": "Minimum Inhibitory Concentration", "setting": "[8]", "result": 25, "unit": "micrograms per milliliter"},
      {"measurement": "Solubility", "setting": "[9]; in methanol, dimethyl formamide, dimethyl sulfoxide", "result": "Soluble"},
      {"measurement": "Solubility", "setting": "[9]; in water, acetone, acetonitrile, ethyl acetate, carbon tetrachloride, chloroform, benzene, petroleum ether", "result": "sparingly soluble"},
      {"measurement": "Minimum Inhibitory Concentration", "setting": "[10]", "result": 25, "unit": "micrograms per milliliter"},
      {"measurement": "Minimum Inhibitory Concentration", "setting": "[11]", "result": 0.75, "unit": "micrograms per milliliter"},
      {"measurement": "Minimum Inhibitory Concentration", "setting": "[12]", "result": 3.1, "unit": "micrograms per milliliter"},
      {"measurement": "Minimum Inhibitory Concentration", "setting": "[13]", "result": 50, "unit": "micrograms per milliliter"},
      {"measurement": "Minimum Inhibitory Concentration", "setting": "[14]", "result": 0.18, "unit": "micrograms per milliliter"}
    ]}
  ]
}
